# Test results: patent publication US8609661B2, “Pyrimido-pyrrolo-quinoxalinedione inhibitors of cystic fibrosis transmembrane conductance regulator protein and uses therefor” (The Regents of the University of California, priority 2009, dated 2013)
# Columns and labels:
# cellular cAMP production = assay: Cellular cAMP assayed in CHO-K1 cells, basal and forskolin-stimulated; assay type: cell-based; conditions: 10 μM; 20 μM forskolin
# Procedure: FIG. 3A: Apical membrane current measured in CFTR-expressing FRT cells in the presence of a transepithelial chloride gradient and with amphotericin B permeabilization of the basolateral membrane. CFTR was activated by CPT-cAMP (chlorophenylthio-cAMP) (100 μM), with increasing concentrations of PPQ-102 added as shown. Left: Original recording. Right: Dose-response (S.E. n=4). FIG. 3B: Measurements as in FIG. 3A, but with apigenin (100 μM) or IBMX (100 μM) as agonists. The data are representative of 3 sets of experiments. FIG. 3C: Short-circuit current measured in T84 (left) and human bronchial airway epithelial cells (right). CFTR was maximally activated by 10 μM forskolin and 100 μM IBMX (‘forsk’). Current in the absence of inhibitor is indicated as ‘control.’ FIG. 3D: Calcium-activated chloride channels were activated by UTP (100 μM) in cystic fibrosis (CFTR-deficient) human bronchial epithelial cells, with PPQ-102 added as indicated. ENaC (epithelial sodium channel) was inhibited by amiloride (10 μM). FIG. 3E: Cellular cAMP assayed in CHO—K1 cells under basal conditions and after addition of 20 μM forskolin (S.E. n=4, differences with PPQ-102, not significant).
# [1] = tested on: renal cysts in E13.5 embryonic kidneys; assay: Embryonic kidney organ culture model of PKD (8-Br-cAMP-induced cysts); assay type: cell-based, mouse
# Procedure: E. Embryonic Organ Culture Model of PKD—Mouse embryos were obtained at embryonic day 13.5 (E13.5). Metanephroi were dissected and placed on transparent Falcon […] diameter porous cell culture inserts as described (see, e.g., Sonawane et al., Chem. Biol. 15:718-728 (2008)). To the culture inserts was added DMEM/Ham's F-12 nutrient medium supplemented with 2 mM L-glutamine, 10 mM HEPES, 5 μg/mL insulin, 5 μg/mL transferrin, 2.8 nM selenium, 25 ng/ml prostaglandin E, 32 pg/ml T3, 250 U/ml penicillin and 250 μg/ml streptomycin. Kidneys were maintained in a 37° C. humidified CO2 incubator for up to 8 days. Culture medium containing 100 μM 8-Br-cAMP, with or without CFTR inhibitor, was replaced (in the lower chamber) every 12 h. In some studies CFTR inhibitor was added at 3 days after 8-Br-cAMP to test its efficacy in reversing pre-formed cysts. Kidneys were photographed using a Nikon inverted microscope (Nikon TE 2000-S) equipped with 2× objective lens, 520 nm bandpass filter, and high-resolution CCD camera. Percentage cyst area was calculated as total cyst area divided by total kidney area.
# Kidneys were removed from day 13.5 embryonic mice and maintained in organ culture where they continue to grow. […] Multiple cysts did form and progressively enlarged when the culture medium was supplemented with the CFTR agonist 8-Br-cAMP (see FIG. 5A, left). […] In agreement with the transmission light micrographs of intact kidneys, PPQ-102 reduced cyst size.
# human wildtype CFTR [2] = target: T1, human wildtype CFTR (Homo sapiens, UniProt P13569); assay: Short-circuit (apical membrane) chloride current in CFTR-expressing FRT cells, basolateral membrane permeabilized; assay type: cell-based
# T1 construct: expressed in transfected cells; host or cells: Fischer rat thyroid (FRT) cells
# Procedure: C. Short-Circuit Current Measurements—Snapwell inserts containing CFTR-expressing FRT cells (stably expressing human wildtype CFTR), T84 cells, or human bronchial epithelial cells were mounted in Ussing chambers. For FRT cells the hemichambers were filled with 5 mL of 75 mM NaCl and 75 mM Na gluconate (apical), and 150 mM NaCl (basolateral) (pH 7.3), and the basolateral membrane was permeabilized with 250 μg/mL amphotericin B. For bronchial epithelial cells and T84 cells, both hemichambers contained a Krebs-bicarbonate solution. Hemichambers were continuously bubbled with air (FRT cells) or 5% CO2 in air (bronchial and T84 cells) and maintained at 37° C. Short-circuit current was recorded continuously using a DVC-1000 voltage clamp (World Precision Instruments, Sarasota, Fla.) using Ag/AgCl electrodes and 3 M KCl agar bridges.
# Short circuit current analysis was performed as described in Example 2. […] Measurements were taken in the presence of a transepithelial chloride gradient and following basolateral membrane permeabilization with amphotericin B so that measured current is a direct, quantitative measure of CFTR chloride conductance.
# human wildtype CFTR [3] = target: T1, human wildtype CFTR; assay: Fluorescence platereader assay of CFTR-mediated iodide influx (YFP quenching) in FRT cells; assay type: cell-based
# Summary of the method: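 Fischer rat thyroid cells co-expressing human wildtype CFTR and the YFP-H148Q/1152L halide sensor were seeded at 20,000 cells per well in 96-well black-walled plates and assayed 48 h later at confluence. After PBS washes and a 15 min incubation, CFTR was maximally activated with an agonist mixture. Fluorescence was recorded for 2 s before and 10 s after adding 160 μL iodide-substituted PBS, and iodide influx rates came from non-linear regression.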
# T1 sequence (P13569 whole entry): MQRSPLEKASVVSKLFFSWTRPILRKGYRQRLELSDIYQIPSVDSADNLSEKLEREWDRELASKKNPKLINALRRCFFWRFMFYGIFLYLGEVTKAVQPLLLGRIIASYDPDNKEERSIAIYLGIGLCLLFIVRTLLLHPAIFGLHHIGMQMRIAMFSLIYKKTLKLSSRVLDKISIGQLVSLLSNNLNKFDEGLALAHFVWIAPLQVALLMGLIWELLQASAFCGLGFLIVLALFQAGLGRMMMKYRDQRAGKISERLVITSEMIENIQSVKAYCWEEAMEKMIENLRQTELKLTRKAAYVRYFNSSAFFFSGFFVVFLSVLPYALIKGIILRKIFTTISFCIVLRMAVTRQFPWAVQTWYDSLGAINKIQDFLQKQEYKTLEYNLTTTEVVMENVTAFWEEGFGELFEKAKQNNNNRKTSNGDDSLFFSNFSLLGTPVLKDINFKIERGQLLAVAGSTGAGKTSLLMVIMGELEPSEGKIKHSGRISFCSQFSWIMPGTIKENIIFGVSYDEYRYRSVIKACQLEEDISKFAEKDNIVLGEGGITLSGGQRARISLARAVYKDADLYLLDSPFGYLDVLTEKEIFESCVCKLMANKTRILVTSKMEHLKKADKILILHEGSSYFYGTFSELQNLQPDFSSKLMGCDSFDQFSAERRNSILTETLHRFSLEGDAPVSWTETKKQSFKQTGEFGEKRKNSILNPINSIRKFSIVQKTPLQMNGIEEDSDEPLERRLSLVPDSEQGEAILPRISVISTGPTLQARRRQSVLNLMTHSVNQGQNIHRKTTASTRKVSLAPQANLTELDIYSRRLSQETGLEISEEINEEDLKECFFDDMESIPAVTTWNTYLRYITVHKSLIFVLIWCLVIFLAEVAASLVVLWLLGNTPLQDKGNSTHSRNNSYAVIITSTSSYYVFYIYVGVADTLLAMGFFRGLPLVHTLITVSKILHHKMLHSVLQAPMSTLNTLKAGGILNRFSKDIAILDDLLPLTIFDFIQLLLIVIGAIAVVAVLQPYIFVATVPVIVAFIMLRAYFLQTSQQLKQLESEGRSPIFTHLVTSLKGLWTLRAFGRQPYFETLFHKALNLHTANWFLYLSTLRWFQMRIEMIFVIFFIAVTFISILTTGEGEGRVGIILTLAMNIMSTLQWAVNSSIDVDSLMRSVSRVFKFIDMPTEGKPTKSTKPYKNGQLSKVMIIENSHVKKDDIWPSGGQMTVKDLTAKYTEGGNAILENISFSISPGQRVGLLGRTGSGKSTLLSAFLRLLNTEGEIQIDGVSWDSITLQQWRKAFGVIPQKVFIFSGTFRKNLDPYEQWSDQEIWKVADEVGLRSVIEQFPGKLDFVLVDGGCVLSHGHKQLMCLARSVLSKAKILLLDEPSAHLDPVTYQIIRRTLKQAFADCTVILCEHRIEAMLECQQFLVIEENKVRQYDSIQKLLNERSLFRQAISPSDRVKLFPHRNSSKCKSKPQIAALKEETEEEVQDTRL
compound,measurement,setting,value
"Cc1ccc(C2Nc3ccccc3-n3c(-c4ccccc4)c4c(=O)n(C)c(=O)n(C)c4c32)o1 (racemic) [PPQ-102, 7,9-Dimethyl-11-phenyl-6-(5-methylfuran-2-yl)-5,6-dihydro-pyrimido[4′,5′-3,4]pyrrolo[1,2-a]quinoxaline-8,10-(7H,9H)-dione]",effect on basal or forskolin-stimulated cAMP production,cellular cAMP production,no significant effect
same,reversibility of cyst inhibition,"[1]; 2.5 μM removed after 3 days, 8-Br-cAMP continued",reversible
same,effect on pre-formed cysts,"[1]; 5 μM added at day 3 of 8-Br-cAMP, over 1 and 2 days",reduction in cyst size
same,cysts at 2.5 and 5 μM,"[1]; 2.5 and 5 μM, 4 days in culture, 100 μM 8-Br-cAMP",near complete absence of cysts
same,effect on kidney growth,[1]; in culture medium,did not affect kidney growth
same,reversibility of inhibition,"human wildtype CFTR [2]; 30 min incubation with 2 μM, then 10 min washout",complete restoration of CFTR chloride current
same,IC50,"human wildtype CFTR [2]; CFTR stimulated by CPT-cAMP, transepithelial chloride gradient, amphotericin B, read-out: IC50 for inhibition of CFTR chloride conductance",~90 nM
same,inhibition of CFTR at higher concentrations,"human wildtype CFTR [2]; CPT-cAMP stimulation, higher concentrations",approximately 100%
same,potency with apigenin or IBMX as agonist compared to CPT-cAMP,human wildtype CFTR [2]; apigenin (100 μM) or IBMX (100 μM) as agonists,mildly reduced
same,inhibition at 5 µM,"human wildtype CFTR [3]; FRT, Table 2, screening, 5 μM, read-out: % Inhibition at 5 μM",85%
same,inhibition at 25 µM,"human wildtype CFTR [3]; FRT, Table 2, screening, 25 μM, read-out: % Inhibition at 25 μM",97%
same,IC50,"human wildtype CFTR [3]; apparent IC50 from concentration-inhibition data, fluorescence platereader assay",800 nM
